“Also recorded” adds a separate entry of the source. Read-outs that look alike come from different tables or passages of the source.
How the values were obtained:
Fyn SH2 domain = biological target: T1, Fyn SH2 domain (Homo sapiens, UniProt P06241); assay: Binding constants (Kd) for Fyn SH2 domain, isothermal titration calorimetry; details: ITC
T1 construct: The Fyn, Lck and PLC SH2 domains were expressed in bacteria as GST fusion proteins; GST (cleaved yes); made in house; host or cells: bacteria
Protocol: SLFpYEEI and FKpYEEI are bifunctional molecules that can bind FKBP12 and FKBP52 as well as the Fyn SH2 domain (FIG. 2). The binding constants (Kd values) of the bifunctional molecules for the three proteins were measured using isothermal titration calorimetry (ITC) (Table 1).
FIG. 6 is a graph of the competition binding curves for the Fyn SH2 domain and FKpYEEI as well as the Fyn SH2 domain and the peptide pYEEI in the absence and the presence of FKBP52. Fyn SH2 domain was incubated with peptide beads and increasing concentrations of FKpYEEI in the absence or presence of FKBP52. Specifically, in this assay, in 100 L binding reactions, radioactively labeled Fyn SH2 domain (200 nM) was incubated with 7.5 L of a 1:1 pYEEI bead slurry. Increasing concentrations of FKpYEEI or pYEEI (0.1-20.0 M) were added in the presence or absence of FKBP52 (4.5 M). The binding reactions were rotated at room temperature for 2 hours, centrifuged and analysed as described above. Half maximal binding (IC50) is observed at 750 riM FKpYEEI in the absence of FKBP52. […] Using ITC, the binding constant (Kd) for Fyn SH2 domain binding to the FKpYEEI-FKBP52 complex was determined.
FIG. 13 is a graph of the competition binding curves for the Fyn SH2 domain and SLFpYEEI in the absence and the presence of FKBP12. Fyn SH2 domain was incubated with increasing concentrations of SLFpYEEI in the absence or presence of FKBP12. In this assay, in 100 L binding reactions, radioactively labeled Fyn SH2 domain (200 nM) was incubated with 7.5 L of a 1:1 pYEEI bead slurry. Increasing concentrations of SLFpYEEI (0.1-20.0 M) were added in the presence or absence of FKBP12 (20 M). The binding reactions were rotated at room temperature for 2 hours, centrifuged and analysed as described above. […] This effect was confirmed by ITC.

PLC SH2 domain = assay: Competition binding assay of radioactive PLC SH2 domain to pYEEI beads; details: 1.0-1.5 μM ligand plus FKBP12 (0.5-4.0 μM or 2.0 μM)
From the text: The pYEEI peptide was coupled to Affi-Gel 10 beads (Biorad) via its amino-group. The Fyn, Lck and PLC SH2 domains were expressed in bacteria as GST fusion proteins. The linker between the GST protein and the SH2 domain contained a thrombin cleavage site and a protein kinase A (PKA) phosphorylation site. The fusion protein on glutathione beads was radioactively labeled at the PKA phosphorylation site using PKA (Sigma). After extensive washing of the beads, the radioactive SH2 domain was released by cleavage with thrombin (Sigma). In a typical binding assay, 7.5 L of a 1:1 peptide bead slurry were incubated with the radioactive SH2 domain (200 nM) for 2 hours in 100 L of binding buffer (20 mM Tris pH7.2; 150 mM NaCl). In order to separate the radioactive protein bound to the beads, the binding reaction was transfered into a PCR tube (USA Scientific Plastic), whose bottom had been punctured with a 26gauge needle. The PCR tube was placed in a 0.5 mL Eppendorf tube which in turn was placed in a regular 1.5 mL Eppendorf tube. The tubes were spun for 1 second at maximal speed in an Eppendorf centrifuge resulting in the separation of the beads remaining in the PCR tube and the supernatant, which was collected in the 0.5 ml Eppendorf tube. The beads were resuspended in […] PBS and the radioactivity was counted in a liquid scintillation counter after addition of 3 ml scintillation fluid. The radioactivity remaining in the 100 L supernatant was counted in the same way. It was determined that under the conditions described 65% Fyn, 25% PLC and 15%Lck SH2 domain were bound to the beads. […]
The binary complex of FKpYEEI and FKBP 12 has the same affinity for the Fyn SH2 domain as free FKpYEEI (see FIG. 7). […] The binding reactions were rotated at room temperature for 2 hours, centrifuged and analysed as described above.
In this assay, in 100 L binding reactions, radioactively labeled PLC SH2 domain (400 nM) was incubated with 7.5 L of a 1:1 pYEEI bead slurry. […] The binding reactions were rotated at room temperature for 2 hours, centrifuged and analysed as described above. […]

[1] = ligand alone, no presenter protein, read-out: Binding constant (Kd) for Fyn SH2 domain, free ligand

T1 sequence (P06241 149-246 limits assumed): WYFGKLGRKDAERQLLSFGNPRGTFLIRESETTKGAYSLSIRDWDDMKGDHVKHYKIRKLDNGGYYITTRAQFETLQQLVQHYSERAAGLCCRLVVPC

Row | Compound | Kd (Fyn SH2 domain; in complex with FKBP52, read-out: Kd for Fyn SH2 domain binding to the FKpYEEI-FKBP52 complex) [µM] | Kd (Fyn SH2 domain; [1]) [µM] | Effect of FKBP12 on affinity for the PLC SH2 domain (PLC SH2 domain)
1 | CC[C@H](C)[C@H](NC(=O)[C@H](CCC(=O)O)NC(=O)[C@H](CCC(=O)O)NC(=O)[C@H](Cc1ccc(OP(=O)(O)O)cc1)NC(=O)OCC[C@@H]1/C=C(\C)C[C@H](C)C[C@H](OC)[C@H]2O[C@@](O)(C(=O)C(=O)N3CCCC[C@H]3C(=O)O[C@H](/C(C)=C/[C@@H]3CC[C@@H](O)[C@H](OC)C3)[C@H](C)[C@@H](O)CC1=O)[C@H](C)C[C@@H]2OC)C(=O)O [FKpYEEI] | 0.13 | 0.52 | decreased affinity for the PLC SH2 domain; also recorded: reducing binding to the PLC SH2 domain
2 | CC[C@H](C)[C@H](NC(=O)[C@H](CCC(=O)O)NC(=O)[C@H](CCC(=O)O)NC(=O)[C@H](Cc1ccc(OP(=O)(O)O)cc1)NC(=O)COc1cccc([C@@H](CCc2ccc(OC)c(OC)c2)OC(=O)[C@@H]2CCCCN2C(=O)C(=O)C(C)(C)CC)c1)C(=O)O [SLFpYEEI] |  | 0.183 | reduced binding

— US6921531B2, “Administering bifunctional molecules containing a drug moiety and presenter protein ligand for therapy” (The Board of Trustees of the Leland Stanford Junior …, priority 1998, dated 2005)
